Reference: PMC5599507 (Scientific Reports, 2017)
Read-outs that look alike come from different tables or passages of the source.

Assays:
NR1/NR2A NMDAR = molecular target: T1, NR1/NR2A NMDAR (Homo sapiens, UniProt Q05586+Q12879); test: NMDAR-mediated calcium flux assay, NR1/NR2A-transduced HEK293 cells; assay type: cell-based; settings: for EC50: MDL105,519-protected cells after washout, read-out: EC50 of activation of NMDAR-mediated calcium flux; for effect on NMDAR activity at saturating concentrations of ligand: saturating concentrations of both ligands; for potentiation of NMDAR activity at submaximal ligand concentration: submaximal (EC30) D-serine or glutamate; for ligand-induced NMDAR-mediated calcium influx after protection with the compound and washout: cells cultured 16 h with compound, washed, stimulated with glycine/glutamate; for glutamate concentration dependence of inhibitor potency: CGP070667-protected cells
T1 construct: cDNAs for the GRIN1 (NM_007327), GRIN2A (NM_000833.3), GRIN2B (NM_000834.3) and Kir2.1 (NM_000891.2) proteins were purchased from GeneCopoeia; expressed in transfected cells; host or cells: HEK293 cells (ATCC) transduced with BacMam baculovirus (pFastBac-CMV-GW-DEST); virus made in Sf9
T1 sequence (Q12879 23-1464, other chains not shown): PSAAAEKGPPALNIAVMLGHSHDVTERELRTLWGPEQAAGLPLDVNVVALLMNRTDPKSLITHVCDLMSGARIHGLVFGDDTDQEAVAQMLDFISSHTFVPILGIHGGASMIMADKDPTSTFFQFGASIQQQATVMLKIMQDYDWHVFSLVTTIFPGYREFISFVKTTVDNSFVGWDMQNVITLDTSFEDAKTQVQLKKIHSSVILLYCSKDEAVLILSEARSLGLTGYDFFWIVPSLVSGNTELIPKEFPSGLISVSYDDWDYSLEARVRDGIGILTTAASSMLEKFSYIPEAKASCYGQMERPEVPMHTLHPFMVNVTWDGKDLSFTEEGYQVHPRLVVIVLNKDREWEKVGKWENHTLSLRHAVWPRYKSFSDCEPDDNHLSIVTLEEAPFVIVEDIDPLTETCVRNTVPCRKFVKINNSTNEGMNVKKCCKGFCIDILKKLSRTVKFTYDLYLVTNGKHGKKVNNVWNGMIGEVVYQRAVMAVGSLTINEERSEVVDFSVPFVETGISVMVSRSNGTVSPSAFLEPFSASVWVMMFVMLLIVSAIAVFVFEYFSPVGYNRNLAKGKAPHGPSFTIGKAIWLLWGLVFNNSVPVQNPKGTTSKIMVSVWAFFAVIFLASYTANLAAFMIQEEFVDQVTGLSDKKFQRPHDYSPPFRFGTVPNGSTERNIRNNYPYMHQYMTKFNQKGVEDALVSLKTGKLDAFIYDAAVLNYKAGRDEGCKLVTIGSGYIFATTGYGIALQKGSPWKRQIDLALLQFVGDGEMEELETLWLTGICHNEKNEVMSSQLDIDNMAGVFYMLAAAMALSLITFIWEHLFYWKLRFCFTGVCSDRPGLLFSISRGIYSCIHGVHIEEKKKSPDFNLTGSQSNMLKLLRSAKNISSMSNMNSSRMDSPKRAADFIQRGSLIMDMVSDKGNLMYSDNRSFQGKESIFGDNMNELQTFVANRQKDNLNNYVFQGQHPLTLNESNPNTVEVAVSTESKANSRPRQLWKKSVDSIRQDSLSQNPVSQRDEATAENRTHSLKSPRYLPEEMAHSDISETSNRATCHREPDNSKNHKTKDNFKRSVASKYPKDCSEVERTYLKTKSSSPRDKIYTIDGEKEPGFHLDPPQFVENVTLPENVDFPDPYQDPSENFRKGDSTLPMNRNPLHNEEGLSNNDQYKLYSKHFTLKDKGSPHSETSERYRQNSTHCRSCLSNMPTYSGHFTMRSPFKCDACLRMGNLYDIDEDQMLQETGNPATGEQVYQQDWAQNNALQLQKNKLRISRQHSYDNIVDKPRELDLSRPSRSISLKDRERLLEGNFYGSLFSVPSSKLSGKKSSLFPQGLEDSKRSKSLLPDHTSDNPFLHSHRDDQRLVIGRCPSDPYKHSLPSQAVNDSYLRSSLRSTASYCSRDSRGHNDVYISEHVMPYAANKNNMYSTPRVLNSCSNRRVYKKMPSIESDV
Protocol: (§2) 10^4 cells per 384-well were infected with baculovirus in suspension, seeded into a clear bottom, poly-D-lysine treated 384-well plate (Corning) and treated with the indicated concentrations of protection compound (100 µM MDL105,519 or 5 µM CGP070667). 16 h after transduction, cell medium was replaced with calcium6-dye (Molecular Devices, R8192) in incubation buffer (HBSS pH 7.5, 20 mM HEPES, 1 mM MgCl2, 1 mM probenecid) and cells were incubated at 37 °C for 2 h. […] In the beginning of each experiment baseline fluorescence (F0) was measure for 5–30 sec. For compound treatment, 10 µl of a 4× stock of compound diluted in assay buffer was added on the FDSS (speed 20 µl/s, tip height 1.8 mm) fluorescence was measured for 5 min (interval 1) before adding 10 µl of a 5× stock of ligand diluted in assay buffer and measurement of fluorescence for 5 min (interval 2). For single addition experiments, the maximal fluorescence ratio was calculated by dividing the maximal fluorescence in interval 1 by the average baseline fluorescence (Fmax/F0). For experiments requiring two additions, the integral of the fluorescence ratio was determined by calculating the area under the curve of the fluorescent ratios in interval 2. Data was analyzed as indicated and was normalized to controls located on the same plate.

NR1/NR2A-H44A/E226A = test: NMDAR-mediated calcium flux assay, NR1/NR2A-H44A/E226A mutant in HEK293 cells; settings: at the EC50 of D-serine
Protocol: as §2

NR1/NR2B NMDAR = molecular target: T2, NR1/NR2B NMDAR (Homo sapiens, UniProt Q05586+Q13224); test: NMDAR-mediated calcium flux assay, NR1/NR2B-transduced HEK293 cells; assay type: cell-based
T2 construct: cDNAs for the GRIN1 (NM_007327), GRIN2A (NM_000833.3), GRIN2B (NM_000834.3) and Kir2.1 (NM_000891.2) proteins were purchased from GeneCopoeia; expressed in transfected cells; host or cells: HEK293 cells (ATCC) transduced with BacMam baculovirus (pFastBac-CMV-GW-DEST)
T2 sequence (Q13224 27-1484, other chains not shown): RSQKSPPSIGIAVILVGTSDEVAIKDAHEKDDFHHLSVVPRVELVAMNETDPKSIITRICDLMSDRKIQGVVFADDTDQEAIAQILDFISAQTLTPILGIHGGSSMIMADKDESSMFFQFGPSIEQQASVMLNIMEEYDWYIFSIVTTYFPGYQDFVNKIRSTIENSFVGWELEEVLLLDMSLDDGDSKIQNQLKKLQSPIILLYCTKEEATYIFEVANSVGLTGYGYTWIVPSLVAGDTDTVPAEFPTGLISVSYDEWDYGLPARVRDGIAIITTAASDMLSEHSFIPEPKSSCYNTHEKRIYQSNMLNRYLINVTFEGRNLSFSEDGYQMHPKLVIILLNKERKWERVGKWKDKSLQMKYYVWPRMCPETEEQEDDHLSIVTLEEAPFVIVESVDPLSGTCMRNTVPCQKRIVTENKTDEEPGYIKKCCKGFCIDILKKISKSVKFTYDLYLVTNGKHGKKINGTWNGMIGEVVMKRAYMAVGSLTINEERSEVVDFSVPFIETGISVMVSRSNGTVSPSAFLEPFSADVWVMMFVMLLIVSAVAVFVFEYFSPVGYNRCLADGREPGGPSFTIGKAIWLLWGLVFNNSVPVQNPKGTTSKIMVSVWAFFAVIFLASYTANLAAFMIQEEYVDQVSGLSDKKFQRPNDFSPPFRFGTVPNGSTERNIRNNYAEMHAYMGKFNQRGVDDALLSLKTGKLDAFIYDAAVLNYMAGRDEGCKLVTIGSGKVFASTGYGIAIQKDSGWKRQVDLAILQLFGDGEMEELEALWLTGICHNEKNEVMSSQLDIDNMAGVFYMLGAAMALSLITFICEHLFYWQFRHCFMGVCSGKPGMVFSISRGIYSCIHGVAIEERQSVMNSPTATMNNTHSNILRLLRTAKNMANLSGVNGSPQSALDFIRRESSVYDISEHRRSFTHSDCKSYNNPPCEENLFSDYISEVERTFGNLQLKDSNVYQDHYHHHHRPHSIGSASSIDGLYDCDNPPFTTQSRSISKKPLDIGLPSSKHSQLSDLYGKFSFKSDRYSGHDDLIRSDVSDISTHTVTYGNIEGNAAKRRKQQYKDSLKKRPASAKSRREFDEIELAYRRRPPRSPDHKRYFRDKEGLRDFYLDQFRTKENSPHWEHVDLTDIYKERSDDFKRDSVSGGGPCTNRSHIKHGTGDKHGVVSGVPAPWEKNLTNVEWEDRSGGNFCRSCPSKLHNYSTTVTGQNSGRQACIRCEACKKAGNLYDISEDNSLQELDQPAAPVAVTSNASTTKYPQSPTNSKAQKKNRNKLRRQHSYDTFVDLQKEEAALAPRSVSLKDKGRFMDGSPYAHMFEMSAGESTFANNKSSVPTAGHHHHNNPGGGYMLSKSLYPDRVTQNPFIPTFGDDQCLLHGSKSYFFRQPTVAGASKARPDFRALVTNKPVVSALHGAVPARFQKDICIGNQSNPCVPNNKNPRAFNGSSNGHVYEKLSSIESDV
Protocol: 16 h after transduction, cell medium was replaced with calcium6-dye (Molecular Devices, R8192) in incubation buffer (HBSS pH 7.5, 20 mM HEPES, 1 mM MgCl2, 1 mM probenecid) and cells were incubated at 37 °C for 2 h. Before measurement, the dye-solution was replaced with 30 ul assay buffer (HBSS pH 7.5, 20 mM HEPES, 1.8 mM CaCl2). Cells were allowed to rest for 10 min at room temperature before measuring calcium flux on a FDSS7000 plate reader (Hamamatsu) with the following settings: 1 sec measurement interval, 200 ms exposure time, 2 × 2 binning, Ex480 nm:Em540 nm, sensitivity 1–3. In the beginning of each experiment baseline fluorescence (F0) was measure for 5–30 sec. For compound treatment, 10 µl of a 4× stock of compound diluted in assay buffer was added on the FDSS (speed 20 µl/s, tip height 1.8 mm) fluorescence was measured for 5 min (interval 1) before adding 10 µl of a 5× stock of ligand diluted in assay buffer and measurement of fluorescence for 5 min (interval 2). For single addition experiments, the maximal fluorescence ratio was calculated by dividing the maximal fluorescence in interval 1 by the average baseline fluorescence (Fmax/F0). For experiments requiring two additions, the integral of the fluorescence ratio was determined by calculating the area under the curve of the fluorescent ratios in interval 2. Data was analyzed as indicated and was normalized to controls located on the same plate.

NR1/NR2A-V783F = molecular target: T3, NR1/NR2A-V783F (Homo sapiens, UniProt Q05586+Q12879, V783F); test: NMDAR-mediated calcium flux assay, NR1/NR2A-V783F mutant in HEK293 cells; assay type: cell-based; settings: MDL105,519-protected cells
T3 construct: cDNAs for the GRIN1 (NM_007327), GRIN2A (NM_000833.3), GRIN2B (NM_000834.3) and Kir2.1 (NM_000891.2) proteins were purchased from GeneCopoeia; expressed in transfected cells; host or cells: HEK293 cells transduced with BacMam baculovirus
T3 sequence (Q12879 23-1464 V783F, other chains not shown): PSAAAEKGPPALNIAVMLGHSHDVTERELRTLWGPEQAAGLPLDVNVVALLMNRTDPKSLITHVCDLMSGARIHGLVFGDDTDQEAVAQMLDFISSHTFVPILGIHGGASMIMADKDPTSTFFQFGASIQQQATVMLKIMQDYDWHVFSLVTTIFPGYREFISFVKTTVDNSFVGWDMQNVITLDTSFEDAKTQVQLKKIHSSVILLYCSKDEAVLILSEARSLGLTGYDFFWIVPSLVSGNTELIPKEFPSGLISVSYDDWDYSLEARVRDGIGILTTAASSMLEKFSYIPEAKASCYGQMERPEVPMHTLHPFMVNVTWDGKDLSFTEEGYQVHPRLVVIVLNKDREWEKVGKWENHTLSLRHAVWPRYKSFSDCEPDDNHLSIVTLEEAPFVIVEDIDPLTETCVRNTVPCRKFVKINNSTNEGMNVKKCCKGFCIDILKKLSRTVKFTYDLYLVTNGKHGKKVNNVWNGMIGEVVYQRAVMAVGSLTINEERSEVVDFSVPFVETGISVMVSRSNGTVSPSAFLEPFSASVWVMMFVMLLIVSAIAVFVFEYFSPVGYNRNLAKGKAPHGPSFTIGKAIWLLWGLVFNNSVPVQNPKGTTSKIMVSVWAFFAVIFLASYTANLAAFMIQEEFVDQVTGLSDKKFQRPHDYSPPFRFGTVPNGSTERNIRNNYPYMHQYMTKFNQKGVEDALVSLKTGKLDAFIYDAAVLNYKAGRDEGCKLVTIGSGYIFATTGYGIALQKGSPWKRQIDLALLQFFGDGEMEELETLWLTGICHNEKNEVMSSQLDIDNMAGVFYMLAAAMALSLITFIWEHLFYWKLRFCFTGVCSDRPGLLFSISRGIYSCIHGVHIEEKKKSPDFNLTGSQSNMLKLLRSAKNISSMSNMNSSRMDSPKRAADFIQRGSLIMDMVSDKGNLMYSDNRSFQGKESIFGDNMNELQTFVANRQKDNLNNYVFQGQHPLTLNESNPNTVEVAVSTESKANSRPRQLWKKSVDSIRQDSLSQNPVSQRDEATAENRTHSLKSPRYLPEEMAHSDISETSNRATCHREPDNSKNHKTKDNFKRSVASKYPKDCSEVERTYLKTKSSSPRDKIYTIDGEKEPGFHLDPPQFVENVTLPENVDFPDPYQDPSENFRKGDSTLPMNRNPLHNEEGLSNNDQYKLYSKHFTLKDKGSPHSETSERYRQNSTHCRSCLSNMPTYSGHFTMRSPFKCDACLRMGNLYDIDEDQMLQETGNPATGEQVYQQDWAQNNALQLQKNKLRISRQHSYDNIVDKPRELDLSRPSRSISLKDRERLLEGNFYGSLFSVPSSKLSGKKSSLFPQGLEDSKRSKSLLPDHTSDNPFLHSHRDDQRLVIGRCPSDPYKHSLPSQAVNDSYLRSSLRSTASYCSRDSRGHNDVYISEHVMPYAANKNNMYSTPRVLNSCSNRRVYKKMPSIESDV
Protocol: 16 h after transduction, cell medium was replaced with calcium6-dye (Molecular Devices, R8192) in incubation buffer (HBSS pH 7.5, 20 mM HEPES, 1 mM MgCl2, 1 mM probenecid) and cells were incubated at 37 °C for 2 h. Before measurement, the dye-solution was replaced with 30 ul assay buffer (HBSS pH 7.5, 20 mM HEPES, 1.8 mM CaCl2). Cells were allowed to rest for 10 min at room temperature before measuring calcium flux on a FDSS7000 plate reader (Hamamatsu) with the following settings: 1 sec measurement interval, 200 ms exposure time, 2 × 2 binning, Ex480 nm:Em540 nm, sensitivity 1–3. In the beginning of each experiment baseline fluorescence (F0) was measure for 5–30 sec. For compound treatment, 10 µl of a 4× stock of compound diluted in assay buffer was added on the FDSS (speed 20 µl/s, tip height 1.8 mm) fluorescence was measured for 5 min (interval 1) before adding 10 µl of a 5× stock of ligand diluted in assay buffer and measurement of fluorescence for 5 min (interval 2). For single addition experiments, the maximal fluorescence ratio was calculated by dividing the maximal fluorescence in interval 1 by the average baseline fluorescence (Fmax/F0). For experiments requiring two additions, the integral of the fluorescence ratio was determined by calculating the area under the curve of the fluorescent ratios in interval 2. […]

HEK293 cells = test: Cell viability (CellTiterGlo) of HEK293 cells, toxicity of the compound itself; assay type: cell-based, human; settings: 16 h treatment
Protocol: (§1) Cell viability was assessed Cell Titer Glo (Promega) and measured on an Envision plate reader (PerkinElmer).

[1] = tested on: NR1/2A-transduced HEK293 cells; test: Cell viability (CellTiterGlo) of NR1/2A-transduced HEK293 cells, protection from excitotoxicity; assay type: cell-based, human
Protocol: as §1

[2] = 16 h after transduction with concurrent treatment
[3] = HEK293 cells after protection with MDL105,519, stimulation with EC80 of both ligands, mean, n > 3, n.d. = not detectable, read-out: IC50 NR2B
[4] = HEK293 cells after protection with MDL105,519, stimulation with EC80 of both ligands, mean, n > 3, n.d. = not detectable, read-out: IC50 NR2A

## N[C@H](CO)C(=O)O [D-serine]
NR1/NR2A NMDAR
  EC50: ~9 µM

## O=C(O)CN(CCN(CC(=O)O)CC(=O)O)CC(=O)O [EDTA]
NR1/NR2A-H44A/E226A; compared to wildtype NR2A
  sensitivity of the double mutant to activation: less sensitive

## CCN(Cc1cc(=O)n2c3c(sc2n1)CCC3)c1ccc(F)cc1 [GNE-8324]
NR1/NR2B NMDAR
  effect on NR1/2B-mediated calcium flux: no effect
NR1/NR2A-V783F
  sensitivity of NR1/2A-V783F to the compound: complete loss of sensitivity
NR1/NR2A NMDAR
  effect on NMDAR activity at saturating concentrations of ligand: enhanced NMDAR activity
  potentiation of NMDAR activity at submaximal ligand concentration: concentration-dependent potentiation

## CNC1(c2ccccc2Cl)CCCCC1=O (stereo not shown) [Ketamine]
HEK293 cells
  toxic effect on HEK293 cells: dose-dependent toxic effect
NR1/NR2B NMDAR
  IC50: 12100 nM
[1]; [2]
  protection from NMDAR-mediated excitotoxicity (cell viability): could be rescued
NR1/NR2A NMDAR
  IC50: 23000 nM
  ligand-induced NMDAR-mediated calcium influx after protection with the compound and washout: did not observe significant ligand-induced NMDAR-mediated calcium influx

## O=c1[nH]c2cc(Cl)ccc2c(O)c1-c1cccc(Oc2ccccc2)c1 [L701,324]
NR1/NR2B NMDAR; [3]
  IC50: 1910 nM
NR1/NR2A NMDAR; [4]
  IC50: 1450 nM

## N[C@@H](CO)C(=O)O [L-serine]
NR1/NR2A NMDAR; MDL105,519-protected cells, saturating glutamate
  right shift in potency as compared to D-serine: ~ 200 fold

## O=C(O)C(=Cc1c(C(=O)O)[nH]c2cc(Cl)cc(Cl)c12)c1ccccc1 [MDL105,519]
NR1/NR2B NMDAR; [3]
  IC50: 1650 nM
[1]; [2]
  protection from NMDAR-mediated excitotoxicity (cell viability): dose-dependent rescue of cell viability
[1]; overnight (16 h) treatment of NR1/2A-transduced cells, screen of 120 compounds
  cell viability compared to non-transduced cells: > 70%
NR1/NR2A NMDAR
  glutamate concentration dependence of inhibitor potency: only minor effects
  ligand-induced NMDAR-mediated calcium influx after protection with the compound and washout: enabled the largest dynamic range of NMDAR-activity
NR1/NR2A NMDAR; [4]
  IC50: 620 nM
NR1/NR2A NMDAR; MDL105,519-protected cells
  shift of inhibitor dose response curve, EC100 vs EC20 of D-serine: right shift

## C[C@]12N[C@H](Cc3ccccc31)c1ccccc12 [MK801]
NR1/NR2B NMDAR; [3]
  IC50: 150 nM
[1]; [2]
  protection from NMDAR-mediated excitotoxicity (cell viability): could be rescued
NR1/NR2A NMDAR
  glutamate concentration dependence of inhibitor potency: only minor effects
  ligand-induced NMDAR-mediated calcium influx after protection with the compound and washout: did not observe significant ligand-induced NMDAR-mediated calcium influx
NR1/NR2A NMDAR; after washout of MDL105,519, no ligand
  change of signal on NMDAR block in the absence of ligand (basal activity): only a weak decrease of signal

## [Cl-].[Cl-].[Mg+2] [MgCl2, magnesium chloride]
[1]; [2]
  concentration giving partial rescue of cell viability: > 10 mM
  protection from NMDAR-mediated excitotoxicity (cell viability): partial rescue
NR1/NR2A NMDAR; co-transduction with Kir2.1 (KCNJ2), MDL105,519-protected cells
  sensitivity of NR1/NR2A to inhibition with increasing Kir2.1 baculovirus titer: increased sensitivity

## C[C@H](NC(c1cccc2[nH]c(=O)c(=O)[nH]c12)P(=O)(O)O)c1ccc(Br)cc1 (stereo partly shown) [NVP-AAM077]
NR1/NR2B NMDAR; [3]
  IC50: 11900 nM
NR1/NR2A NMDAR; [4]
  IC50: 2460 nM

## C[C@@H](CN1CCC(Cc2ccccc2)CC1)[C@@H](O)c1ccc(O)cc1 [RO25-6981]
NR1/NR2B NMDAR; [3]
  IC50: 100 nM

## NCC(=O)O [glycine]
NR1/NR2A NMDAR; CGP070667-protected cells after washout
  sensitivity of NMDAR-mediated calcium flux to ligand: insensitivity
NR1/NR2A NMDAR
  EC50: ~12 µM

## [Zn+2] [zinc]
NR1/NR2A-H44A/E226A; read-out: IC50 for zinc, NR2A-H44A/E226A double mutant, MDL105,519-protected cells
  IC50: > 10 µM
NR1/NR2A NMDAR; MDL105,519-protected cells, at the EC50 of D-serine, read-out: IC50 for zinc, wildtype receptor
  IC50: ~100 nM

## pregnenolone sulfate [PS]
NR1/NR2B NMDAR; saturating concentrations of both ligands
  effect on NMDAR activity at saturating concentrations of ligand: supramaximal activation
NR1/NR2B NMDAR; submaximal (EC30) D-serine or glutamate
  potentiation of NMDAR activity at submaximal ligand concentration: enhanced NMDAR activity
NR1/NR2A NMDAR
  effect on NMDAR activity at saturating concentrations of ligand: supramaximal activation
  potentiation of NMDAR activity at submaximal ligand concentration: enhanced NMDAR activity
